Assay results reported in PubChem BioAssay AID1963866 (Molecular Pharmacology Branch, DTP, NCI, 2024).

Tested on: PDC KRAS tumor spheroids with HUVEC/MSC, viability
Experiment: Anticancer human tumor 349418-098-R-PDC patient-derived lung adenocarcinoma cell line growth inhibition [KRAS2]
Settings: for IC50: curve of first compound; for viability, T/C: stronger effect = lower value
In short: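 KRAS-mutant tumor cells were grown as spheroids with HUVEC endothelial cells and human MSCs as stroma. Targeted agents were tested alone and with KRAS pathway inhibitors. Doses started at or near clinical Cmax, or 10 microM, descending half-log.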

[1] = second compound 0.1 µM, first compound 0.000316 µM
[2] = second compound 0.1 µM, first compound 0.001 µM
[3] = second compound 0.1 µM, first compound 0.00316 µM
[4] = second compound 0.1 µM, first compound 0.01 µM
[5] = second compound 0.1 µM, first compound 0.0316 µM
[6] = second compound 0.1 µM, first compound 0.1 µM
[7] = second compound 0.316 µM, first compound 0.000316 µM
[8] = second compound 0.316 µM, first compound 0.001 µM
[9] = second compound 0.316 µM, first compound 0.00316 µM
[10] = second compound 0.316 µM, first compound 0.01 µM
[11] = second compound 0.316 µM, first compound 0.0316 µM
[12] = second compound 0.316 µM, first compound 0.1 µM
[13] = second compound 1 µM, first compound 0.000316 µM
[14] = second compound 1 µM, first compound 0.001 µM
[15] = second compound 1 µM, first compound 0.00316 µM
[16] = second compound 1 µM, first compound 0.01 µM
[17] = second compound 1 µM, first compound 0.0316 µM
[18] = second compound 1 µM, first compound 0.1 µM
[19] = second compound 3.16 µM, first compound 0.000316 µM
[20] = second compound 3.16 µM, first compound 0.001 µM
[21] = second compound 3.16 µM, first compound 0.00316 µM
[22] = second compound 3.16 µM, first compound 0.01 µM
[23] = second compound 3.16 µM, first compound 0.0316 µM
[24] = second compound 3.16 µM, first compound 0.1 µM
[25] = second compound 10 µM, first compound 0.000316 µM
[26] = second compound 10 µM, first compound 0.001 µM
[27] = second compound 10 µM, first compound 0.00316 µM
[28] = second compound 10 µM, first compound 0.01 µM
[29] = second compound 10 µM, first compound 0.0316 µM
[30] = second compound 10 µM, first compound 0.1 µM
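Further: spheroids exposed to compounds for seven days before readout.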

## CN(C)C/C=C/C(=O)Nc1cc2c(Nc3ccc(F)c(Cl)c3)ncnc2cc1O[C@H]1CCOC1 + CNCc1ccccc1-c1csc(C(C)Nc2nc(C)nc3cc(OC)c(OC)cc23)c1
Second compound 0.1 µM
  IC50: > 100 nM
Second compound 0.316 µM
  IC50: > 100 nM
Second compound 1 µM
  IC50: > 100 nM
Second compound 3.16 µM
  IC50: < 0.316 nM
Second compound 10 µM
  IC50: < 0.316 nM
[1]
  viability, T/C: 105%
[2]
  viability, T/C: 108%
[3]
  viability, T/C: 102%
[4]
  viability, T/C: 97%
[5]
  viability, T/C: 108%
[6]
  viability, T/C: 91.5%
[7]
  viability, T/C: 98.2%
[8]
  viability, T/C: 103%
[9]
  viability, T/C: 103%
[10]
  viability, T/C: 99.9%
[11]
  viability, T/C: 97.8%
[12]
  viability, T/C: 91.2%
[13]
  viability, T/C: 107%
[14]
  viability, T/C: 104%
[15]
  viability, T/C: 87.7%
[16]
  viability, T/C: 94.2%
[17]
  viability, T/C: 84.9%
[18]
  viability, T/C: 95.4%
[19]
  viability, T/C: 0.27%
[20]
  viability, T/C: 0.17%
[21]
  viability, T/C: 0.19%
[22]
  viability, T/C: 0.41%
[23]
  viability, T/C: 0.63%
[24]
  viability, T/C: 0.26%
[25]
  viability, T/C: 0.08%
[26]
  viability, T/C: 0.07%
[27]
  viability, T/C: 0.07%
[28]
  viability, T/C: 0.08%
[29]
  viability, T/C: 0.08%
[30]
  viability, T/C: 0.13%

## Cn1ncnc1[C@H]1c2n[nH]c(=O)c3cc(F)cc(c23)N[C@@H]1c1ccc(F)cc1 + COc1cc2nc(C)nc(NC(C)c3cc(N)cc(C(F)(F)F)c3)c2cc1OC1CCOC1
Second compound 0.1 µM
  IC50: > 100 nM
Second compound 0.316 µM
  IC50: > 100 nM
Second compound 1 µM
  IC50: > 100 nM
Second compound 3.16 µM
  IC50: > 100 nM
Second compound 10 µM
  IC50: < 0.316 nM
[1]
  viability, T/C: 103%
[2]
  viability, T/C: 99.9%
[3]
  viability, T/C: 100%
[4]
  viability, T/C: 95.8%
[5]
  viability, T/C: 91.6%
[6]
  viability, T/C: 82.4%
[7]
  viability, T/C: 97%
[8]
  viability, T/C: 92.7%
[9]
  viability, T/C: 97.2%
[10]
  viability, T/C: 89.5%
[11]
  viability, T/C: 88.3%
[12]
  viability, T/C: 81.1%
[13]
  viability, T/C: 97.3%
[14]
  viability, T/C: 97%
[15]
  viability, T/C: 93.9%
[16]
  viability, T/C: 87.5%
[17]
  viability, T/C: 83.4%
[18]
  viability, T/C: 77.7%
[19]
  viability, T/C: 92.5%
[20]
  viability, T/C: 88.6%
[21]
  viability, T/C: 86.3%
[22]
  viability, T/C: 85.2%
[23]
  viability, T/C: 74.1%
[24]
  viability, T/C: 78.1%
[25]
  viability, T/C: 36.2%
[26]
  viability, T/C: 20.6%
[27]
  viability, T/C: 23%
[28]
  viability, T/C: 23.2%
[29]
  viability, T/C: 31%
[30]
  viability, T/C: 24.3%
